Patent US20030170239A1, “Immunotherapeutic method to prevent islet cell rejection” (priority 2000, published 2003)

Tests used:
[1] = tested on: pig islet xenograft in Lewis rats; assay: Immunohistochemical analysis of pig islet xenograft, non-diabetic recipients (Example 1); format: in vivo; parameters: key to Insulin staining of graft: 0 = absent; + = single cell only; ++ = cell groups; +++ = large cell groups; key to OX33 (B cells) leukocytic infiltration (IHC) / ED1 (CD68) leukocytic infiltration (IHC) / CD3 (Tcells) leukocytic infiltration (IHC) / CD8 leukocytic infiltration (IHC) / CD4 leukocytic infiltration (IHC): 0 = absent; + = single or few; ++ = moderate; +++ = plenty; details: non-diabetic Lewis rats, 2,000 IE pig islets, day +12 post transplant
Text: Pancreata were removed from donor outbred female pigs, >2 years old, by standard surgical technique. Following removal, pancreata were perfused with Liberase HI (Roche Diagnostics Corp., Indianapolis, Ind., U.S.A., Cat. No. 1666720) for intraductal distension. Islet cells were dissociated from the perfused pancreata by the automated method. Cleaved islets were separated from non-islet tissue by continuous OptiPrep gradients (Accurate Chemical and Scientific Corp., Westbury, N.Y., U.S.A., Cat. No. AN-1030061) on a COBE 2991 cell separator (Gambro BCT International, Lakewood, Colo., U.S.A.). The resulting free floating, purified islet cells were cultured in M199 medium supplemented with 20% donor pig serum for 48 hours at 37° C.
Transplantation was conducted by standard surgical technique. Briefly, the recipient animals, non-diabetic inbred male Lewis rats weighing 250-270 grams, were anesthetized with Telazol 0.20 mg/kg BW, administered i.m. In addition, the analgesic buprinorphine was administered s.c. to the recipient animals. Transplantation was conducted by making a left flank incision on the recipient, into which 2,000 donor islet equivalents (IE) were injected under the left kidney capsule via PE-50 tubing according to standard procedure.
(§1) In this study, recipients were administered the following immunosuppressive drugs: anti-CD40L mAb AH.F5 (Biogen, Inc., Cambridge, Mass., U.S.A.; 12 mg/kg BW, administered i.p. on day—1, 0, 1, 7, and then twice weekly); non-depleting anti-CD4 mAb RIB 5/2 (20 mg/kg BW, administered i.p. on day—1, 0, 1, 2, 3, 5, and then twice weekly); Ha4/8, a non-specific control to anti-CD40L (12 mg/kg BW, administered i.p. on day—1, 0, 1, 7, and then twice weekly); and FK-506 (Prograf, Fujisawa, Inc.; diluted to 1.25 mg/ml in sterile water, 0.3 mg/kg BW, administered i.m. daily from day—2, i.e., 2 days prior to transplant).
Animals were sacrificed by intracardiac exsanguination after ether anesthesia on day +12 post transplant for histological analysis of the graft. Kidneys bearing xenografts were harvested, snap frozen in liquid nitrogen and stored at −70° C.
The following primary Abs were used for immunohistochemical analysis: W3/24 (anti-CD4; available from Pharmingen) W3/13 (anti-CD3; available from Pharmingen); OX-8 (anti-CD8; available from Pharmingen); NK1.2.3 (anti-NK cell; available from Pharmingen); OX-33 (anti-B cell; available from Serotec); ED1 (anti-CD68/macrophages; available from Serotec); and insulin from Dako. The immunohistochemical analysis was visualized by an avidin-biotin-peroxidase complex method and AEC as chromogen. In the case of a positive immunoreaction, a red-brown precipitate developed.

Lewis rats = assay: Toxicity / body weight of recipients (Example 1); format: in vivo; details: when FK506 (0.3 mg/kg BW) was added, 12 days follow up
Protocol: as §1
Control animals increased on average 15% in weight. All antibody treated animals (alone or in combination, but without FK506) increased weight parallel to untreated controls. […] This toxicity is significant, considering that the follow up was only 12 days and that the dose of FK506 (0.3 mg/kg BW) is equal or lower than in studies reporting no toxicity.

In the case of C=CC[C@@H]1/C=C(\C)C[C@H](C)C[C@H](OC)[C@H]2O[C@@](O)(C(=O)C(=O)N3CCCC[C@H]3C(=O)O[C@H](/C(C)=C/[C@@H]3CC[C@@H](O)[C@H](OC)C3)[C@H](C)[C@@H](O)CC1=O)[C@H](C)C[C@@H]2OC [FK, FK-506], the “CD3 (Tcells) leukocytic infiltration (IHC)” value [1] is reported as “++”, the “CD4 leukocytic infiltration (IHC)” value [1] is reported as “++” and the “CD8 leukocytic infiltration (IHC)” value [1] is reported as “+”. The “ED1 (CD68) leukocytic infiltration (IHC)” value [1] was “+”, the “Insulin staining of graft” value [1] was “++” and the “OX33 (B cells) leukocytic infiltration (IHC)” value [1] was “+”. For the same compound, the body weight lost (Lewis rats) was “around 5%”.
